Reference: patent US6932960B2, “N-substituted 3-hydroxy-4-pyridinones and pharmaceuticals containing thereof” (Bristol-Myers Squibb Pharma Company, priority 2002, dated 2005)

What was measured:
[1] = Zn(II) binding constant (Log KZnL/[Zn][L]), literature values; format: physicochemical; details: relative to N-hydroxyacetamide
[2] = Zn(II) binding affinity of the chelator; cited from earlier work

Structure (SMILES) | Log KZnL/[Zn][L] fold higher than that of N-hydroxyacetamide [1] | Log KZnL/[Zn][L] [2]
Cc1c(O)c(=O)ccn1C [Deferiprone, 1,2-dimethyl-3-hydroxy-4-pyridinone] | about 100 fold | 7.19
CC(=O)NO [N-hydroxyacetamide] | – | < 5
